{"source": "patent US4642332A", "about": "“Effective hormonal peptides: D-3-Pal^6 -LHRH” (The Board of Regents, The University of Texas System, priority 1985, dated 1987)", "key": {"21 day old female rats": {"test_system": "21 day old female rats", "experiment": "In vivo assay in rats for release of LH and FSH", "design": "species or system rat", "details": "for Serum FSH ng/ml SEM / Serum LH ng/ml SEM: Table IX, blood sample at ±60 minutes; for Serum FSH ng/ml SEM / Serum LH ng/ml SEM / FSH ng/ml Serum ± SEM at +120 min / LH ng/ml Serum ± SEM at +120 min: mean of 6; for FSH ng/ml Serum ± SEM at +120 min / LH ng/ml Serum ± SEM at +120 min: Table X; for +2 hrs LH ± SEM ng/ml serum / FSH ± SEM ng/ml serum (+2 hrs) / +3 hrs LH ± SEM ng/ml serum / FSH ± SEM ng/ml serum (+3 hrs): Table XI, 150 ng sc, mean 5-6", "method": "In vivo rat assay performed by a modification of the method of Bowers, C. Y. et al. Endocrinology, 106, 674 (1980). 21 day old female rats were injected sc with saline or peptide. Blood samples for the RIAs of LH and FSH were collected at +15, +60, +120, or +180 minutes. (Tables VI-XI)."}, "[1]": {"test_system": "pituitary cells from 21 day old rats", "experiment": "In vitro pituitary incubate assay (release of LH and FSH)", "type": "cell-based, rat", "details": "mean of 9", "method": "The data in Tables IV and V are from the in vitro assay of the peptides with the pituitary incubate. This assay measures the release of LH and FSH in an in vitro system with pituitary cells from 21 day old rats. See, Bowers, C. Y. et al. on the inhibitory effects of leutinizing hormone releasing hormone analogs. Endocrinology, 106: 674 (1980).\nThe abbreviations are as follows: sc-subcutaneous, SEM-standard error of the mean; NS-not significant; ng-nanogram, and ml-milliliter. The p value represents the population coefficient .rho.(rho) which signifies whether a sample coefficient is significant or a chance deviation from zero."}, "[2]": {"details": "Table IV, dosage 0.03 ng/ml medium"}, "[3]": {"details": "Table IV, dosage 0.1 ng/ml medium"}, "[4]": {"details": "Table IV, dosage 0.3 ng/ml medium"}, "[5]": {"details": "Table IV, dosage 1.0 ng/ml medium"}, "[6]": {"details": "Table V, dosage .03 ng/ml medium"}, "[7]": {"details": "Table V, dosage .10 ng/ml medium"}, "[8]": {"details": "Table V, dosage .30 ng/ml medium"}, "[9]": {"details": "Table VI, 15 ng/rat sc, mean of 9"}, "[10]": {"details": "Table VI, 50 ng/rat sc, mean of 9"}, "[11]": {"details": "Table VI, 150 ng/rat sc, mean of 9"}, "[12]": {"details": "Table VIII first section (time not given), 15 ng/rat sc, mean of 5-6"}, "[13]": {"details": "Table VIII first section (time not given), 50 ng/rat sc, mean of 5-6"}, "[14]": {"details": "Table VIII first section (time not given), 150 ng/rat sc, mean of 5-6"}, "[15]": {"details": "Table VIII, ±60 min after injection, 150 ng/rat sc, mean of 5-6"}}}
{"compound": "CCNC(=O)[C@@H]1CCCN1C(=O)[C@H](CCCNC(=N)N)NC(=O)[C@H](CC(C)C)NC(=O)[C@@H](Cc1cccnc1)NC(=O)[C@H](Cc1ccc(O)cc1)NC(=O)[C@H](CO)NC(=O)[C@H](Cc1c[nH]c2ccccc12)NC(=O)[C@H](Cc1c[nH]cn1)NC(=O)[C@@H]1CCC(=O)N1", "note": "[Peptide 21436, pyroGlu-His-Trp-Ser-Tyr-D-3-Pal-Leu-Arg-Pro-NHC2 H5]", "values": [{"measurement": "Serum FSH ng/ml SEM", "setting": "21 day old female rats; 50 ng/rat sc", "result": "3471 ± 229", "unit": "ng/mL"}, {"measurement": "Serum LH ng/ml SEM", "setting": "21 day old female rats; 50 ng/rat sc", "result": "116 ± 20", "unit": "ng/mL"}, {"measurement": "Serum FSH ng/ml SEM", "setting": "21 day old female rats; 150 ng/rat sc", "result": "1458 ± 424", "unit": "ng/mL"}, {"measurement": "Serum LH ng/ml SEM", "setting": "21 day old female rats; 150 ng/rat sc", "result": "144 ± 37", "unit": "ng/mL"}, {"measurement": "FSH ng/ml Serum ± SEM at +120 min", "setting": "21 day old female rats; 50 ng/rat sc", "result": "4692 ± 393", "unit": "ng/mL"}, {"measurement": "LH ng/ml Serum ± SEM at +120 min", "setting": "21 day old female rats; 50 ng/rat sc", "result": "291 ± 11", "unit": "ng/mL"}, {"measurement": "FSH ng/ml Serum ± SEM at +120 min", "setting": "21 day old female rats; 150 ng/rat sc", "result": "4811 ± 782", "unit": "ng/mL"}, {"measurement": "LH ng/ml Serum ± SEM at +120 min", "setting": "21 day old female rats; 150 ng/rat sc", "result": "278 ± 14", "unit": "ng/mL"}, {"measurement": "+2 hrs LH ± SEM ng/ml serum", "setting": "21 day old female rats", "result": "237 ± 52", "unit": "ng/mL"}, {"measurement": "FSH ± SEM ng/ml serum (+2 hrs)", "setting": "21 day old female rats", "result": "2415 ± 361", "unit": "ng/mL"}, {"measurement": "+3 hrs LH ± SEM ng/ml serum", "setting": "21 day old female rats", "result": "106 ± 13", "unit": "ng/mL"}, {"measurement": "FSH ± SEM ng/ml serum (+3 hrs)", "setting": "21 day old female rats", "result": "2205 ± 298", "unit": "ng/mL"}]}
{"compound": "CNC(=O)[C@@H]1CCCN1C(=O)[C@H](CCCNC(=N)N)NC(=O)[C@H](CC(C)C)NC(=O)[C@@H](Cc1cccnc1)NC(=O)[C@H](Cc1ccc(O)cc1)NC(=O)[C@H](CO)NC(=O)[C@H](Cc1c[nH]c2ccccc12)NC(=O)[C@H](Cc1c[nH]cn1)NC(=O)[C@@H]1CCC(=O)N1", "note": "[Peptide 21437, pryoGlu-His-Trp-Ser-Tyr-D-3-Pal-Leu-Arg-Pro-NHCH3]", "values": [{"measurement": "Serum FSH ng/ml SEM", "setting": "21 day old female rats; 50 ng/rat sc", "result": "1707 ± 518", "unit": "ng/mL"}, {"measurement": "Serum LH ng/ml SEM", "setting": "21 day old female rats; 50 ng/rat sc", "result": "47 ± 8", "unit": "ng/mL"}, {"measurement": "Serum FSH ng/ml SEM", "setting": "21 day old female rats; 150 ng/rat sc", "result": "2799 ± 783", "unit": "ng/mL"}, {"measurement": "Serum LH ng/ml SEM", "setting": "21 day old female rats; 150 ng/rat sc", "result": "111 ± 26", "unit": "ng/mL"}]}
{"compound": "LHRH: peptide hormone known as the leutinizing hormone releasing hormone, exists naturally in the hypothalamus", "values": [{"measurement": "FSH released into medium (ng/ml) ± SEM", "setting": "[1]; [2]", "result": "638 ± 292"}, {"measurement": "LH ng/ml medium ± SEM", "setting": "[1]; [2]", "result": "52 ± 20", "unit": "ng/mL"}, {"measurement": "FSH released into medium (ng/ml) ± SEM", "setting": "[1]; [3]", "result": "266 ± 235"}, {"measurement": "LH ng/ml medium ± SEM", "setting": "[1]; [3]", "result": "214 ± 30", "unit": "ng/mL"}, {"measurement": "FSH released into medium (ng/ml) ± SEM", "setting": "[1]; [4]", "result": "4556 ± 752"}, {"measurement": "LH ng/ml medium ± SEM", "setting": "[1]; [4]", "result": "771 ± 162", "unit": "ng/mL"}, {"measurement": "FSH released into medium (ng/ml) ± SEM", "setting": "[1]; [5]", "result": "8063 ± 943"}, {"measurement": "LH ng/ml medium ± SEM", "setting": "[1]; [5]", "result": "1434 ± 156", "unit": "ng/mL"}, {"measurement": "FSH ng/ml medium ± SEM", "setting": "[1]; [6]", "result": "598 ± 137", "unit": "ng/mL"}, {"measurement": "LH ng/ml medium ± SEM", "setting": "[1]; [6]", "result": "33 ± 24", "unit": "ng/mL"}, {"measurement": "FSH ng/ml medium ± SEM", "setting": "[1]; [7]", "result": "794 ± 52", "unit": "ng/mL"}, {"measurement": "LH ng/ml medium ± SEM", "setting": "[1]; [7]", "result": "206 ± 42", "unit": "ng/mL"}, {"measurement": "FSH ng/ml medium ± SEM", "setting": "[1]; [8]", "result": "2709 ± 252", "unit": "ng/mL"}, {"measurement": "LH ng/ml medium ± SEM", "setting": "[1]; [8]", "result": "892 ± 92", "unit": "ng/mL"}, {"measurement": "Serum FSH ng/ml SEM", "setting": "21 day old female rats; 50 ng/rat sc", "result": "909 ± 118", "unit": "ng/mL"}, {"measurement": "Serum LH ng/ml SEM", "setting": "21 day old female rats; 50 ng/rat sc", "result": "5 ± 0.5", "unit": "ng/mL"}, {"measurement": "Serum FSH ng/ml SEM", "setting": "21 day old female rats; 150 ng/rat sc", "result": "1076 ± 185", "unit": "ng/mL"}, {"measurement": "Serum LH ng/ml SEM", "setting": "21 day old female rats; 150 ng/rat sc", "result": "17 ± 3", "unit": "ng/mL"}, {"measurement": "Serum FFSH ng/ml ± SEM", "setting": "21 day old female rats; [9]", "result": "475 ± 43", "unit": "ng/mL"}, {"measurement": "Serum LH ng/ml ± SEM", "setting": "21 day old female rats; [9]", "result": "1.3 ± 0.2", "unit": "ng/mL"}, {"measurement": "Serum FFSH ng/ml ± SEM", "setting": "21 day old female rats; [10]", "result": "572 ± 68", "unit": "ng/mL"}, {"measurement": "Serum LH ng/ml ± SEM", "setting": "21 day old female rats; [10]", "result": "3.2 ± 0.3", "unit": "ng/mL"}, {"measurement": "Serum FFSH ng/ml ± SEM", "setting": "21 day old female rats; [11]", "result": "839 ± 73", "unit": "ng/mL"}, {"measurement": "Serum LH ng/ml ± SEM", "setting": "21 day old female rats; [11]", "result": "12 ± 3", "unit": "ng/mL"}, {"measurement": "LH ng/ml Serum ± SEM ± 15 min", "setting": "21 day old female rats; Table VII, dosage 100 mg/rat sc (so in the source), ± 15 min", "result": "49 ± 10", "unit": "ng/mL"}, {"measurement": "LH ng/ml Serum ± SEM ± 60 min", "setting": "21 day old female rats; Table VII, dosage 100 mg/rat sc (so in the source), ± 60 min", "result": "5.5 ± 0.9", "unit": "ng/mL"}, {"measurement": "Serum FSH ng/ml ± SEM", "setting": "21 day old female rats; [12]", "result": "1147 ± 489", "unit": "ng/mL"}, {"measurement": "Serum LH ng/ml ± SEM", "setting": "21 day old female rats; [12]", "result": "21.0 ± 4.0", "unit": "ng/mL"}, {"measurement": "Serum FSH ng/ml ± SEM", "setting": "21 day old female rats; [13]", "result": "2228 ± 448", "unit": "ng/mL"}, {"measurement": "Serum LH ng/ml ± SEM", "setting": "21 day old female rats; [13]", "result": "53.9 ± 9.0", "unit": "ng/mL"}, {"measurement": "Serum FSH ng/ml ± SEM", "setting": "21 day old female rats; [14]", "result": "1536 ± 172", "unit": "ng/mL"}, {"measurement": "Serum LH ng/ml ± SEM", "setting": "21 day old female rats; [14]", "result": "62.0 ± 21.0", "unit": "ng/mL"}, {"measurement": "Serum FSH ng/ml ± SEM", "setting": "21 day old female rats; [15]", "result": "2448 ± 209", "unit": "ng/mL"}, {"measurement": "Serum LH ng/ml ± SEM", "setting": "21 day old female rats; [15]", "result": "39.0 ± 17", "unit": "ng/mL"}, {"measurement": "+2 hrs LH ± SEM ng/ml serum", "setting": "21 day old female rats", "result": ".18 ± 0.07 ng/mL"}, {"measurement": "FSH ± SEM ng/ml serum (+2 hrs)", "setting": "21 day old female rats", "result": "337 ± 20", "unit": "ng/mL"}, {"measurement": "+3 hrs LH ± SEM ng/ml serum", "setting": "21 day old female rats", "result": "0.66 ± 0.46", "unit": "ng/mL"}, {"measurement": "FSH ± SEM ng/ml serum (+3 hrs)", "setting": "21 day old female rats", "result": "487 ± 72", "unit": "ng/mL"}, {"measurement": "FSH released", "setting": "21 day old female rats; dosage of 15 ng", "result": "572 ± 68", "unit": "ng"}, {"measurement": "release of LH (in words)", "setting": "21 day old female rats; dosage of 15 ng", "result": "inactive"}]}
